# Laboratory results reported in US20230165870A1, “6,8-dioxa-3-azabicyclo[3.2.l]Octane Carboxylic Acids And Their Derivatives For Use In The Treatment Of Inflammations” (MINERVA S.R.L., priority 2020, published 2023).
# Counter-ions that a name gives are not always drawn.
# What was measured:
# Assay type in all cases: cell-based
# [1] = test system: miR-101; experiment: miR-101 expression levels in HEK-293 TrkA cells following ADAR1 knock-down (Real-time PCR); settings: 10 µM MT8, 60 minutes, FIG. 4
# Method: In order to study the effect of MT8 on miR-101 regulatory mechanisms under metabolic stress conditions, HEK-293 TrkA cells were transfected with ADAR1-specific siRNA or control siRNA (scrambled) at the final concentration of 50 nM. After 48 hours, the cells were incubated in serum-free medium for 18 hours and stimulated with MT8 at a concentration of 10 µM for a further 60 minutes. The cells were lysed with TRIzol for the extraction of total RNA, used for the assay of miR-101 by Real Time PCR. The quantitative determination of miR-101 was performed using the 5 s ribosomal RNA gene as the housekeeping gene and the relative increase calculated applying the 2^-ΔCt method.
# [2] = test system: miR-101; experiment: Expression of miR-101 in human monocytes stimulated with LPS (Real-time PCR)
# Method: In order to study the effect of MT8 on the activity of miR-101 in the pro-inflammatory setting, human monocytes isolated from buffy coat were stimulated with 1 µg/ml of LPS in the presence or absence of MT8 at the final concentration of 1 0 µM. After 60 minutes, the cells were lysed in TRIzol for the extraction of total RNA, which was then used for the quantification of miR-101 by Real-time PCR. […] The quantitative determination was performed using the 5 s ribosomal RNA gene as housekeeping and the relative increase calculated applying the 2^-ΔCt method.
# [3] = test system: ADAR1; experiment: Activation of the homodimeric complex of ADAR1 in HEK-293 TrkA cells (immunoprecipitation, Western Blot, densitometry); settings: serum-free 18 hours, 10 µM MT8, 60 minutes, FIG. 2
# Method: In order to study the effect of the MT8 compound on the ADAR1 enzyme, HEK-293 TrkA cells were cultured in serum-free medium for 18 hours and incubated with or without 10 µM of MT8 for another 60 minutes. The cells were then lysed in RIPA buffer (50 mM Tris-HCI, pH 7.4; 150 mM NaCl; 2 mM EDTA; 1 mM NaF; 1 mM sodium orthovanadate, 1% NP-40) and the proteins immunoprecipitated with Anti-ADAR1 antibody and subjected to biochemical analysis by Western Blot. Briefly, 500 µg of total protein was immunoprecipitated using a specific Anti-ADAR1 antibody. The immunoprecipitated product was loaded onto polyacrylamide gel and transferred onto the PVDF membrane. The membrane was then incubated with specific anti-ADAR1 antibodies for signal detection. The analysis allowed to highlight the presence of homodimeric complexes ADAR1/ADAR1 and of the monomeric forms of ADAR1 p150 and p110. The quantitative determination of the homodimer complex of ADAR1, performed by densitometry, was expressed as the ratio between the density of the band of the homodimer ADAR1/ADAR1 and that of the monomer ADAR1 p110.
# [4] = test system: human dendritic cells stimulated with LPS; experiment: Production of IL-1β, TNF-α and IL-6 in human monocytes-derived dendritic cells stimulated with LPS (Luminex multiplex assay); settings: 50 ng/ml LPS, MT8 10 or 30 µM, 18 hours
# Method: (§1) LipoPoliSaccharide (LPS) is an endotoxin that induces a strong immune reaction. In the presence of LPS, immune system cells such as monocytes and dendritic cells react by producing high amounts of inflammatory cytokines such as IL-1β, TNFα and IL-6. To test the ability of MT8 to modulate the production of these cytokines, human monocytes (isolated from buffy coat using anti-CD14 antibody) and human monocytes-derived dendritic cells (MDCs) were cultured at 10^6 cells/ml in complete medium and stimulated with 50 ng/ml of LPS, in the presence or absence of MT8 at a concentration of 10 or 30 µM. After 18 hours of incubation, the supernatants of both cell types were collected and the production of IL-1β, TNF-α, and IL-6 was evaluated by Luminex multiplex assay technology. […] In particular, MT8 was able to decrease the amount of IL-1β in a dose-dependent manner in both monocytes and dendritic cells. In the latter, the reduction recorded was over 50% (FIG. 1B), while in monocytes the reduction was about 17% (FIG. 1A). In any case, this reduction is statistically significant. Similar results were obtained regarding the production of TNF-α which, in the presence of MT8, is reduced by about 17% in monocytes (FIG. 1C) and by 19% in dendritic cells (FIG. 1D). Again, the reduction observed in the presence of MT8 is statistically significant. […] Also, in the latter case the reduction is statistically significant.
# [5] = test system: human monocytes stimulated with LPS; experiment: Production of IL-1β, TNF-α and IL-6 in human monocytes stimulated with LPS (Luminex multiplex assay); settings: 50 ng/ml LPS, MT8 10 or 30 µM, 18 hours
# Method: as §1
compound,measurement,setting,value
"O=C(O)[C@H]1O[C@H]2O[C@@H]1C(=O)N(Cc1ccccc1)[C@@H]2Cc1ccccc1 [MT8, (1S, 4R, 5R, 7S) -3,4-dibenzyl-2-oxo-6,8-dioxa-3-azabicyclo[3.2.1]octane-7-carboxylic acid L-lysine Salt]",ability to decrease miR-101 expression in cells transfected with specific siRNA for ADAR1,[1]; ADAR1-specific siRNA 50 nM,not
same,miR-101 expression level in scrambled siRNA-transfected cells,[1]; control (scrambled) siRNA 50 nM,marked decrease
same,time of exposure until decrease of miR-101,[2]; cellular and tissue systems exposed to MT8,≤ 1 h
same,miR-101 expression level compared to monocytes treated with LPS alone,"[2]; human monocytes, 1 µg/ml LPS, MT8 1 0 µM, 60 minutes, FIG. 3",strong decrease
same,"homodimeric (active) form of ADAR1, ratio homodimer ADAR1/ADAR1 to monomer ADAR1 p110, compared to untreated cells",[3],high increase
same,reduction of IL-1β production,[4]; FIG. 1B,over 50%
same,reduction of TNF-α production,[4]; FIG. 1D,19%
same,reduction of IL-6 production,[4]; FIG. 1F,about 65%
same,reduction of IL-1β production,[5]; FIG. 1A,about 17%
same,reduction of TNF-α production,[5]; FIG. 1C,about 17%
same,reduction of IL-6 production,[5]; FIG. 1E,about 70%
